Measured values from ChEMBL document CHEMBL5113527, “First-in-Class Hydrazide-Based HDAC6 Selective Inhibitor with Potent Oral Anti-Inflammatory Activity by Attenuating NLRP3 Inflammasome Activation” (J Med Chem, 2022).
Calls of active or inactive are those of the source. The calls are words filed in the database; no cut-off is given here.

Key:
Homo sapiens = species on record: Homo sapiens; assay: Selectivity index, ratio of IC50 for recombinant HDAC1(unknown origin) to IC50 for full length recombinant human HDAC6
[1] = biological target: T1, Protein deacetylase HDAC6 (Homo sapiens, UniProt Q9UBN7); assay: Inhibition of recombinant HDAC6 (unknown origin) using Boc-Lys(acetyl)-AMC as substrate preincubated for 1 hr followed by substrate addition and measured after 2 hrs by fluorescence based microplate reader analysis
T1 sequence (Q9UBN7 whole entry): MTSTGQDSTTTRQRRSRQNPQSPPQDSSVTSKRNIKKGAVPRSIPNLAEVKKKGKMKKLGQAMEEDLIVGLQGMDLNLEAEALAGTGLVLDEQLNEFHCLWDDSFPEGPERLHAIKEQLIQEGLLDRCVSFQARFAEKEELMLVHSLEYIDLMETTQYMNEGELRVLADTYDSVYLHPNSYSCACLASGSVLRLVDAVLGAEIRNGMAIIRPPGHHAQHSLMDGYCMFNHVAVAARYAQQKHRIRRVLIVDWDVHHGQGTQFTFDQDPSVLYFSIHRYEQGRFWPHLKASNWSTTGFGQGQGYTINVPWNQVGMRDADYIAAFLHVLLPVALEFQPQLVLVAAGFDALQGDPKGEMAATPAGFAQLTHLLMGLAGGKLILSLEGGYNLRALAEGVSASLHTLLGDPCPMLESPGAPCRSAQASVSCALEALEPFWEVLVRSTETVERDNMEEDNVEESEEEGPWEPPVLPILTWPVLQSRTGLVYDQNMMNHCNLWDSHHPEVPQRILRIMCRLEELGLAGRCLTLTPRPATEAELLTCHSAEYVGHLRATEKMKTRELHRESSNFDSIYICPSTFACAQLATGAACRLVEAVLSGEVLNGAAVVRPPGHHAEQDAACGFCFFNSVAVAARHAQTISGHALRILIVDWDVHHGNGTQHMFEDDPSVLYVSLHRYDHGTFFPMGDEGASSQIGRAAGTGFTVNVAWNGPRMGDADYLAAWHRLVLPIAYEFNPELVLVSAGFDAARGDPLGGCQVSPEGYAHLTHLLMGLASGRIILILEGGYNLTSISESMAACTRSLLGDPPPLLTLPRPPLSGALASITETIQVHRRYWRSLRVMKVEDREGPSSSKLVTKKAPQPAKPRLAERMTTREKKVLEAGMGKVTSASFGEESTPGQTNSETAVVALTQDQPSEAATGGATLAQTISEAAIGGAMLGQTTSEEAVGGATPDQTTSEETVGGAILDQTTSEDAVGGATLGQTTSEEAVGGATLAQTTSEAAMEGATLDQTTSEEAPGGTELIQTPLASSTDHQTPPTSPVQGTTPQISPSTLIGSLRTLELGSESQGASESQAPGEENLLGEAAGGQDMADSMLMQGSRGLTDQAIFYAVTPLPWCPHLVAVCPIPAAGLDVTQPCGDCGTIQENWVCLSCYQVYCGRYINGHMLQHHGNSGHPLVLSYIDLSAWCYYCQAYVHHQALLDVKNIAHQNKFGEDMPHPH

Histone deacetylase 1 [2] = biological target: T2, Histone deacetylase 1 (Homo sapiens, UniProt Q13547); assay: Inhibition of recombinant HDAC1 (unknown origin) using Boc-Lys(acetyl)-AMC as substrate preincubated for 1 hr followed by substrate addition and measured after 2 hrs by fluorescence based microplate reader analysis
Histone deacetylase 3 [3] = biological target: T3, Histone deacetylase 3 (Homo sapiens, UniProt O15379); assay: Inhibition of recombinant HDAC3 (unknown origin) using Boc-Lys(acetyl)-AMC as substrate preincubated for 1 hr followed by substrate addition and measured after 2 hrs by fluorescence based microplate reader analysis
Histone deacetylase 2 [4] = biological target: T4, Histone deacetylase 2 (Homo sapiens, UniProt Q92769); assay: Inhibition of recombinant HDAC2 (unknown origin) using Boc-Lys(acetyl)-AMC as substrate preincubated for 1 hr followed by substrate addition and measured after 2 hrs by fluorescence based microplate reader analysis
[5] = AUC(0 to infinity) in CD-1 mouse at 5 mg/kg, iv measured after 0.083 to 24 hrs by LC-MS/MS analysis; format: ADME, organism-based; parameters: dose 5 mg/kg, time upper 24 hrs, time lower 0.083 hrs, route iv; conditions: in vivo
[6] = Half life in CD-1 mouse at 5 mg/kg, iv measured after 0.083 to 24 hrs by LC-MS/MS analysis; format: ADME, organism-based; conditions: in vivo, time 0.083-24 hrs
[7] = Cmax in CD-1 mouse at 5 mg/kg, iv measured after 0.083 to 24 hrs by LC-MS/MS analysis; format: ADME, organism-based; parameters: dose 5 mg/kg, time 0.083-24 hrs, route iv; conditions: in vivo
[8] = Inhibition of HDAC11(unknown origin) preincubated for 1 hr followed by substrate addition and measured after 2 hrs by fluorescence based microplate reader analysis; parameters: species or system Homo sapiens
[9] = AUC(0 to infinity) in CD-1 mouse at 3 mg/kg, iv measured after 0.083 to 24 hrs by LC-MS/MS analysis; format: ADME, organism-based; parameters: dose 3 mg/kg, time upper 24 hrs, time lower 0.083 hrs, route iv; conditions: in vivo
[10] = Cmax in CD-1 mouse at 30 mg/kg, po measured after 0.083 to 24 hrs by LC-MS/MS analysis; format: ADME, organism-based; parameters: time upper 24 hrs, time lower 0.083 hrs, dose 30 mg/kg, route po; conditions: in vivo
[11] = AUC(0 to infinity) in CD-1 mouse at 30 mg/kg, po measured after 0.083 to 24 hrs by LC-MS/MS analysis; format: ADME, organism-based; parameters: dose 30 mg/kg, time upper 24 hrs, time lower 0.083 hrs, route po; conditions: in vivo
[12] = Cmax in CD-1 mouse at 3 mg/kg, iv measured after 0.083 to 24 hrs by LC-MS/MS analysis; format: ADME, organism-based; parameters: time upper 24 hrs, time lower 0.083 hrs, dose 3 mg/kg, route iv; conditions: in vivo
J774.A1 [13] = assay: Inhibition of HDAC6/dynein interaction in mouse J774.A1 cells measured after 8 hrs by co-immunoprecipitation based Western blotting analysis; format: cell-based
Histone deacetylase 2 [14] = biological target: T4, Histone deacetylase 2; assay: Inhibition of HDAC2 (unknown origin)
Histone deacetylase 1 [15] = biological target: T2, Histone deacetylase 1; assay: Inhibition of HDAC1 (unknown origin)
Histone deacetylase 3 [16] = biological target: T3, Histone deacetylase 3; assay: Inhibition of HDAC3 (unknown origin)
J774.A1 [17] = assay: Inhibition of NLRP3 inflammasome activation in mouse J774.A1 cells assessed as cleavage of pro-caspase 1 to p20 measured at 20 microM after […] by Western blot analysis; format: functional, cell-based; conditions: DDE = dose-dependent effect
J774.A1 [18] = assay: Inhibition of NLRP3 inflammasome activation in mouse J774.A1 cells assessed as cleavage of pro-caspase 1 to p20 measured at 5 to 20 microM after […] by Western blot analysis; format: functional, cell-based; conditions: dose 5-20 µM

T2 sequence (Q13547 whole entry): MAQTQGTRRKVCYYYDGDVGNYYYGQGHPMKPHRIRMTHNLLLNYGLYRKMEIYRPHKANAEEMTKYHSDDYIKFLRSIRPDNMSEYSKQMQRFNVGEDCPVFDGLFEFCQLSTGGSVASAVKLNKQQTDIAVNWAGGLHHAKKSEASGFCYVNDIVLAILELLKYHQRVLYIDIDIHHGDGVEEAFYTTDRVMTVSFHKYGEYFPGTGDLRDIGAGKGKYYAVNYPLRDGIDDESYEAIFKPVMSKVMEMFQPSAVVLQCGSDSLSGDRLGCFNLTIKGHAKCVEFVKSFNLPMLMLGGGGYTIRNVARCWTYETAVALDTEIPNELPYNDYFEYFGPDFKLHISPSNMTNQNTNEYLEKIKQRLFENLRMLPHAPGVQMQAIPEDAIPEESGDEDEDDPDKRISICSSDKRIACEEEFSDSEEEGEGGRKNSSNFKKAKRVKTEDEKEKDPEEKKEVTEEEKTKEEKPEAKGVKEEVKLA
T4 sequence (Q92769 whole entry): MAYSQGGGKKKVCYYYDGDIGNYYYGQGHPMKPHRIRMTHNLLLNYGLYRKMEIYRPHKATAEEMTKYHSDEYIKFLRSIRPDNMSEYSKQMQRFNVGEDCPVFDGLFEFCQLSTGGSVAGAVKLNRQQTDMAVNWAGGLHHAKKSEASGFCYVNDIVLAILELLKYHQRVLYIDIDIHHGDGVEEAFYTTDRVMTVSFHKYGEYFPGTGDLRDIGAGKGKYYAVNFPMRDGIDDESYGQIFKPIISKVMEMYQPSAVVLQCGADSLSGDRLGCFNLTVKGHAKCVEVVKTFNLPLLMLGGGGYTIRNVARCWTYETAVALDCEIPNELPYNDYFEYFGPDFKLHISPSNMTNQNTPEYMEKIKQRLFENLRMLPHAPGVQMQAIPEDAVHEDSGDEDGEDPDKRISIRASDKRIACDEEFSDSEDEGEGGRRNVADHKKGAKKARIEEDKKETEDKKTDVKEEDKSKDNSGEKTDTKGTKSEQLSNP
T3 sequence (O15379 whole entry): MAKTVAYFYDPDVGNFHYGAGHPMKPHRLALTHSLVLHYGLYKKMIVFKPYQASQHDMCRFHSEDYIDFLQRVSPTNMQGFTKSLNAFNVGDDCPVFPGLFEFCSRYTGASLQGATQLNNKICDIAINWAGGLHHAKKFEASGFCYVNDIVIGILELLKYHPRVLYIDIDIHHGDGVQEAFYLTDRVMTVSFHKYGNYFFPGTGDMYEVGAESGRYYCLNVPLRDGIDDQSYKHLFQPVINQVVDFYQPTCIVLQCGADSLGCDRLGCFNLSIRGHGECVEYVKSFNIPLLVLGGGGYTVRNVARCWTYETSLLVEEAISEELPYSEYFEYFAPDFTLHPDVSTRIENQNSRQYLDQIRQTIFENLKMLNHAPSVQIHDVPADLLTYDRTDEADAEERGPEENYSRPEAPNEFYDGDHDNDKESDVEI

SMILES	Ratio IC50 (Homo sapiens)	IC50 [1] [µM]	IC50 (Histone deacetylase 1 [2]) [µM]	IC50 (Histone deacetylase 3 [3]) [µM]	IC50 (Histone deacetylase 2 [4]) [µM]	other results
CCNNC(=O)c1ccc(CNC(=O)c2ccccc2)cc1	5.1	0.078	0.399			
CCNNC(=O)c1ccc(NC(=O)Nc2cccc3cccnc23)cc1	0.9	1.53	1.43	0.446	0.233	
CCCNNC(=O)c1ccc(CNC(=O)c2ccccc2)cc1	0.002	> 5	0.013			
CCNNC(=O)c1ccc(CN2c3ccccc3C=Cc3ccccc32)cc1	54	0.042	2.3	1.61	> 5	
CCNNC(=O)c1ccc(CN2c3ccccc3Cc3ccccc32)cc1	13	0.235	3.19	1.43	> 5	
CCNNC(=O)c1ccc(CN2c3ccccc3Oc3ccccc32)cc1	> 6	0.843	> 5	3.13	> 5	
O=C(CCCCCCNC(=O)c1cnc(N(c2ccccc2)c2ccccc2)nc1)NO [RICOLINOSTAT]						AUC(0-inf) [5]: 342 ng·h/mL; half-life [6]: 2.62 h; Cmax [7]: 372 ng/mL; IC50 [8]: > 5 µM
CCNNC(=O)c1ccc(Cn2c(=O)n(CCc3ccccc3)c(=O)c3ccccc32)cc1	11	0.145	1.69	0.077	1.2	
CN1CCc2c(c3ccccc3n2Cc2ccc(C(=O)NO)cc2)C1 [TUBASTATIN A]						AUC [9]: 227 ng·h/mL; Cmax [10]: 135 ng/mL; IC50 [8]: > 5 µM; AUC [11]: 134 ng·h/mL; Cmax [12]: 1240 ng/mL; inhibition (J774.A1 [13]): Active
CCNNC(=O)c1ccc(CN2c3ccccc3CCc3ccccc32)cc1	> 20	0.25	> 5	3.95	> 5	
CCNNC(=O)c1ccc(Cn2c3c(c4ccccc42)CCCC3)cc1	> 11	0.455	> 5	> 5	> 5	
CCNNC(=O)c1coc(-c2ccc(Br)cc2)c1		> 5	> 5	> 5	> 5	
CCNNC(=O)c1ccc(Cn2c3ccccc3c3cccnc32)cc1	77	0.037	2.86	1.59	2.34	
O=C(NO)c1ccc(CC(=O)N(CCO)c2ccccc2)cc1						IC50 (Histone deacetylase 2 [14]): 2.21 µM; IC50 (Histone deacetylase 1 [15]): 0.842 µM; IC50 (Histone deacetylase 3 [16]): 2.08 µM
CCNNC(=O)c1ccc(CN2c3ccccc3CC(=O)c3ccccc32)cc1	37	0.105	3.92	> 5	> 5	
CCNNC(=O)c1ccc(CN2c3ccccc3C=Cc3nc(C)nc(C)c32)cc1	48	0.047	2.26	1.16	> 5	
CCNNC(=O)c1ccc(Cn2c3ccccc3c3ccccc32)cc1	> 14	0.361	> 5	2.33	> 5	
CCNNC(=O)c1ccc(CN2c3ccccc3C=Cc3ccc(C(F)(F)F)cc32)cc1	> 29	0.173	> 5	1.85	> 5	

SMILES	Ratio IC50 (Homo sapiens)	IC50 [1] [µM]	IC50 (Histone deacetylase 1 [2]) [µM]	IC50 (Histone deacetylase 3 [3]) [µM]	IC50 (Histone deacetylase 2 [4]) [µM]	other results
CCNNC(=O)c1ccc(Cn2c3ccccc3c3ccncc32)cc1	> 68	0.073	> 5	> 5	4.38	
CCNNC(=O)c1csc(-c2cccnc2)n1		> 5	> 5	> 5	0.316	
CCNNC(=O)c1ccc(CNc2cccc3cccnc23)cc1		0.041	0.659	0.147	0.082	
CCNNC(=O)c1ccc(CN2c3ccccc3C=Cc3ccc(F)cc32)cc1	68	0.037	2.52	0.563	4.12	
CCCCN(Cc1ccc(C(=O)NNCC)cc1)C(=O)Nc1ccccc1	2.5	0.132	0.341	0.191	0.078	
CCNNC(=O)c1ccc(CNC(=O)Nc2cccc3cccnc23)cc1		0.034	0.003	0.0009	0.006	
CNNC(=O)c1ccc(CNC(=O)c2ccccc2)cc1	5.2	0.878	4.62			
CCNNC(=O)c1ccc(CN2c3ccccc3Sc3cccnc32)cc1	65	0.061	3.99	1.77	> 5	
O=C(CS)NCCCCNc1c(Cl)cc(Cl)c2cccnc12			6.68			IC50 (Histone deacetylase 1 [15]): 6.68 µM
CCNNC(=O)c1ccc(Cn2c3ccccc3c3cnccc32)cc1	> 45	0.11	> 5	4.61	3.23	
CCCCN(Cc1ccc(C(=O)NO)cc1)C(=O)Nc1ccccc1 [NEXTURASTAT A]						IC50 (Histone deacetylase 3 [16]): 6.08 µM
CCNNC(=O)c1ccc(CN2c3ccccc3C=Cc3ccc(C)cc32)cc1	30	0.076	2.27	0.469	4.39	
O=C(NO)c1ccc(CN2CCCc3ccccc32)cc1						IC50 (Histone deacetylase 2 [14]): 32.8 µM; IC50 (Histone deacetylase 3 [16]): 29.5 µM
CCNNC(=O)c1ccc(Cn2nnnc2-c2cccs2)cc1	5	0.016	0.08	0.026	0.041	
CCCCN(Cc1ccc(C(=O)NNCC)cc1)C(=O)c1ccccc1	6.7	0.189	1.27	0.446	0.187	
CCNNC(=O)c1ccc(Cn2ccc3cc(C(=O)c4ccc(OC)cc4)ccc32)cc1	1.2	0.449	0.543	0.217	0.913	
CNS(=O)(=O)c1ccc(CCNC(=O)c2cc(Cl)ccc2OC)cc1						inhibition (J774.A1 [17]): Dde; Activity (J774.A1 [18]): Active
CCNNC(=O)c1ccc(CN2c3ccccc3Sc3ccccc32)cc1	> 28	0.175	> 5	3.96	> 5	
